In assay [1] the test system is CCNE1-amplified cell lines (COV318, OVCAR3, Fu-OV1, KLE, MKN1, AGS, NCI-N87). Nature of the assay: Cell cycle analysis by FACS in CCNE1-amplified cell lines. Conditions: 100 nM, 16 hours, vs DMSO. In kind it is cell-based, human. How it is done: The effect of CDK2-knockdown in CCNE1-amplified versus CCNE1-non-amplified cell lines was evaluated. CCNE1-amplified cell lines (Fu-OV1 and KLE) or CCNE1-non-amplified cell lines (COV504 and Igrov1) were treated with a control (“ctrl”) or CDK2-specific small interfering RNAs (“siRNAs”) (“CDK2 siRNA-1” and “CDK2 siRNA-2”) (FIGS. 2A and 2B and 3A and 3B). Seventy-two hours after transfection with the siRNAs, the cells were harvested and subjected to cell cycle analysis by fluorescence activated cell sorting (“FACS”) (FIGS. 2A and 3A). Knockdown of CDK2 was confirmed by western blot (FIGS. 2B and 3B).
The effect of CDK4/6-inhibition in CCNE1-amplified versus CCNE1-non-amplified cell lines was evaluated.
A similar experiment was performed in a larger set of CCNE1-amplified cell lines (COV318 and OVCAR3) and CCNE1-non-amplified cell lines (COV504, OV56, and Igrov1) (FIG. 6).
Next, the impact of CDK2-knockdown in these cells was evaluated. Mkn1, Ags, and NCI-N87 cells were treated with control or CDK2-specific siRNA. Three days-post-siRNA transfection, cell cycle phase distribution of the cells was evaluated by FACS. […]
Bulk DNA was stained with DAPI. Compound-treated and DMSO treated control cells were acquired with CytoFlex (Beckman Coulter) and were analyzed using the Flow Jo software. […]

The test system of assay [2] is Rb phosphorylated on serine 780 in CCNE1 amplified COV318 cells. Nature of the assay: CDK2 pRb (S780) HTRF cellular assay. Conditions: for IC50: Homo sapiens, FIG. 10B, read-out: IC50 in p-RB S780 HTRF cellular assay. In kind it is cell-based, human. The procedure:
CDK2 pRb ([…]) HTRF cellular assay enables the quantitative detection of Rb phosphorylated on […] in CCNE1 amplified COV318 cells. The assay comprised two antibodies: Europium cryptate labeled anti-Phospho-Rb […] antibody (donor) and d2 labeled anti-Rb antibody (acceptor). In brief, COV318 cells were seeded into the wells of 96-well plate at a density of 25,000 per well with 9-point, 3-fold serial diluted compounds and cultured overnight at 37 degree with 5% CO2. The final concentrations of compounds start from 3 μM. The next day cells were lysed in 70 μL 1× Phospho-total protein lysis buffer #2 (Cisbio), supplemented with 0.7 μL blocking buffer (Cisbio) and 1.4 μL protease inhibitor cocktail set III, EDTA-free (Calbiochem, 539134). 16 μL of cell lysates were mixed with 4 μL of the fluorophore-conjugated antibodies to a final concentration of 0.188 nM cryptate-labeled anti-Phospho-Rb […] antibody and 0.14 nM d2 labeled anti-Rb antibody. After 2 h of incubation at room temperature, HTRF signals were measured on the PHERAstar microplate reader (BMG Labtech), using 340 nm as excitation wavelength, a 620 nm filter for the Europium donor fluorescence, and a 665-nm filter for the acceptor fluorescence detection. HTRF signals were calculated as the HTRF ratio (ratio of fluorescence measured at 665 nm and 620 nm)×10000.
A general note: In TR-FRET formats the signal depends on donor and acceptor labels being close together.

The values that follow come from US20200316064A1, “CYCLIN-DEPENDENT KINASE 2 BIOMARKERS AND USES THEREOF” (Incyte Corporation, priority 2019, published 2020).

SMILES strings stand for the structures.

Usually IC50 stands for the midpoint of a concentration-inhibition curve. Turning to `C[C@@]1(O)CCC[C@H]1n1c(=O)ccc2cnc(NC3CCN(S(C)(=O)=O)CC3)nc21` [Compound A, 8-((1R,2R)-2-hydroxy-2-methylcyclopentyl)-2-((1-(methylsulfonyl)piperidin-4-yl)amino)pyrido[2,3-d]pyrimidin-7(8H)-one], the “percentage of S phase cells” value in assay [1] (COV318, control siRNA-treated) is “significantly decreased”. Moreover, the “percentage of S phase cells” value in assay [1] (COV318, p16 knocked down by siRNA) is “not significantly decreased”. Moreover, in assay [2], the “Rb phosphorylation on serine 780” value is given as “inhibited Rb phosphorylation on serine 780” and the IC50 came to 37 nM.

With `CC(=O)c1c(C)c2cnc(Nc3ccc(N4CCNCC4)cn3)nc2n(C2CCCC2)c1=O` [palbociclib], the IC50 in assay [2] was above 3000 nM.
